{"source": "patent US12514859B2", "about": "“Pyrazole pyrimidine derivative and uses thereof” (Yissum Research Development Company of the Hebrew …, priority 2015, dated 2026)", "key": {"IRAK1": {"biological_target": "T1, IRAK1 (Homo sapiens, UniProt P51617)", "T1 construct": "RKO cells were incubated for 16 hours at 37° C. with the indicated concentrations of compounds; endogenous in cells; host or cells: RKO cells, stimulated with TNFα", "T1 sequence (P51617 whole entry)": "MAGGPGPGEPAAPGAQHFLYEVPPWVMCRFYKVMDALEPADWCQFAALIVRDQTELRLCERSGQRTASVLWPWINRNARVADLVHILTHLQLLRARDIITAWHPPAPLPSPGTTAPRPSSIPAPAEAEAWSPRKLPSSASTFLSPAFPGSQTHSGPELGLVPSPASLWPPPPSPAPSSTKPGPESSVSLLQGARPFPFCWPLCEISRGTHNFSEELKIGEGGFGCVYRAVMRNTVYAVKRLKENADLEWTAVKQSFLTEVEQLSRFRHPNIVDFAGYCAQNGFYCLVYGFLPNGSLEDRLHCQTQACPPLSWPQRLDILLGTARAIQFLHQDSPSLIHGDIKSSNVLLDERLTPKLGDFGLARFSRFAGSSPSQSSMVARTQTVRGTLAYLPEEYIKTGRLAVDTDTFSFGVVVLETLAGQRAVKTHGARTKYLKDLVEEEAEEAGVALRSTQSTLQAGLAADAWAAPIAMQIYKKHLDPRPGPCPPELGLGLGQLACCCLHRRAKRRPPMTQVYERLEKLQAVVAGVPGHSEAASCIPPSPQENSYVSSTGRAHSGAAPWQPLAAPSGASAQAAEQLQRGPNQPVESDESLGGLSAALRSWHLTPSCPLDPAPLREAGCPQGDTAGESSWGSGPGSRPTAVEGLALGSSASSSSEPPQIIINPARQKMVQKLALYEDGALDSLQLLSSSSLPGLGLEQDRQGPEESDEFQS", "assay": "Kd measurements for the interaction with IRAK1", "assay_type": "binding"}, "[1]": {"system": "p53, DNA damage response (γH2AX)", "assay": "p53 and DNA damage response activation in RKO cells (Western blot, primary screen and dose response)", "assay_type": "cell-based", "conditions": "16 hours, Western blot, average value", "method_in_brief": "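RKO colorectal cells exposed to 10 μM compound (primary screen) or descending concentrations (dose response) for 16 h at 37° C. Lysates Western-blotted for β-catenin, p53, CKIα and phospho-H2AX (S139), ECL detection. p53/DDR activation and β-catenin stabilization scored semi-quantitatively by degree of protein stabilization across several blots.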"}, "CML blast crisis mice": {"system": "CML blast crisis mice", "assay": "CML blast crisis mouse model (BCR-ABL)", "assay_type": "in vivo", "conditions": "oral 10 mg/kg once a day, day 9", "method": "Generation of a mouse model of CML blast crisis and inhibitor studies in this model. To generate the BCR-ABL-inducible chronic myeloid leukemia (CML) model, bone marrow (BM) cells from 10 weeks wild type mouse were extracted and enriched for cKit expressing cells (EasySep #18757) and incubated overnight at 37° C. in RPMI growth medium supplemented with 15% FCS, L-Glutamine, Pen/Strep (Biological Industries, Israel) and stem cell factor (SCF), IL-3, IL-6 and TPO (Peprotcch). The culture was then infected with p210BCR-ABL-IRES-GFP retrovirus construct containing supernatant medium for 4 hours, then growth medium was added and infected cells were incubated at 37° C. for additional 24 h. […] Upon observing a fast steady increase of GFP-expressing cells in the peripheral blood of inoculated mice (by FACS) and rising numbers of leukocyte and immature cells (detected by Wright-Giemsa stained blood films), mice were sacrificed and their BM cells were transferred to new sublethally irradiated WT hosts; each such transfer was termed disease generation. […] Blast crisis development was readily detectable by a highly abnormal number of blast cells, more than 30% of white blood cells (WBC) in the peripheral blood (PB), and short time intervals between transfers. […] Mice were monitored daily for cachexia, weight loss, lethargy, and ruff coats, and moribund mice were sacrificed upon moribund. […]"}}, "data": [{"smiles": "Cn1ncc(-c2ccnc(N[C@H]3CC[C@H](N)CC3)n2)c1CC1CC1", "note": "[Compound A14, (1R, 4R)—N^1-(4-(5-(cyclopropylmethyl)-1-methyl-1H-pyrazol-4-yl)pyrimidin-2-yl)cyclohexane-1,4-diamine]", "values": [{"measurement": "Kd", "setting": "IRAK1", "value": 11, "unit": "nM"}, {"measurement": "DDR & p53 activity", "setting": "[1]", "value": "+++ (+++ indicates maximal β-catenin or p53 stabilization at >2 μM)"}, {"measurement": "leukemia cell burden in the peripheral blood and bone marrow (in words)", "setting": "CML blast crisis mice", "value": "significantly reduces the leukemia cell burden"}]}]}
